Assay results as given in patent US20250241878A1, “TYROSINE AND RESVERATROL DERIVATIVES AS NOVEL MODULATORS OF CELLULAR SERINE ADP-RIBOSYLATION” (UNIVERSITY OF SOUTH CAROLINA, priority 2022, published 2025).
Read-outs that look alike come from different tables or passages of the source.

What was measured:
Assay type in all cases: cell-based, rat
[1] = test system: TyrRS; settings: for effect on NMDA- and MPP+-mediated decrease of neuronal TyrRS: combination with NMDA or MPP+, 4 hr
Method: (§1) Primary cortical neurons were dissected from E18 Sprague Dawley rat pups in Hibernate E (BrainBits®) and dissociated using the Neural Tissue Dissociation kit (Miltenyi Biotec). Minced cortices were incubated in a pre-warmed enzyme mix at 37° C. for 15 min; tissues were then triturated and strained using a 40 μm cell strainer. After washing and centrifugation, neurons were seeded in 50 μg/ml poly-D-Lysine (Sigma-Aldrich) coated tissue culture plates. NBActive-1 medium (BrainBits®) supplemented with 100 U/ml of Penicillin-Streptomycin (Life Technologies™), 2 mM L-Glutamine (Life Technologies™), and 1×N21 supplement (R&D Systems™) was used as culture medium. For preparation of culture medium containing reduced tyrosine, the components of NBActive-1 medium were altered to combined with a reduced concentration of tyrosine, as mentioned in Table 1, and was supplemented with 100 U/ml of Penicillin-Streptomycin (Life Technologies™), 2 mM L-Glutamine (Life Technologies™), and 1×N21 supplement (R&D Systems™) to obtained culture medium with reduced tyrosine. Control (non-targeting), TyrRS, and PARP1 siRNAs were obtained from Invitrogen™ (#AM4635, s443, and s130207, respectively). Rat cortical neurons at 5 DIV were transfected with 75 nM control or TyrRS siRNA using DharmaFECT™ 3 Transfection Reagent. A second transfection was done two days later using 75 nM of TyrRS siRNA, followed by cell collection or assays after another 48 hr. For PARP1 siRNA, neurons at 7 DIV were transfected with 75 nM siRNA for both control and PARP1 siRNA.
(§2) Cultured neurons (DIV 9-10) were washed once with cold 1×PBS and lysed in cell lysis buffer (20 mM Tris-HCl (pH 7.5), 150 mM NaCl, 1 mM Na2EDTA, 1 mM EGTA, 1% Triton™, 2.5 mM sodium pyrophosphate, 1 mM beta-glycerophosphate, 1 mM Na3VO4, 1 μg/ml leupeptin supplemented with protease inhibitor). The lysates were centrifuged at 10,000 RPM for 15 mins at 4° C. to separate the chromatin-bound and soluble fractions. Lysates were quantified using Bio-Rad™ Protein Assay and equal amounts of protein were loaded onto a 4 to 12% gradient gel (Invitrogen™ NuPAGE™). Protein was transferred from the gel to 0.2 μm NC membranes at 25 V for 10 mins using transfer stacks (iBlot™ 2-Invitrogen™) and blocked with 5% non-fat milk in TBST (10 mM Tris-HCl pH 8.0, 150 mM NaCl, 0.01% Tween-20) for 1 hr before application of primary antibodies. Primary and secondary antibodies were incubated overnight at 4° C. and for 1 hr at room temperature, respectively. Immobilon® ECL Ultra Western HRP Substrate (WBULS0500, Millipore™) and a luminescent image analyzer (ChemiDoc™ Imaging System, Bio-Rad™) were used to detect proteins. Quantification of western blots was done using ImageJ (Version 1.53c).
(§3) Cultured cortical neurons (DIV 9-10) were fixed in 4% formaldehyde for 15 min, followed by permeabilization and blocking for 30 min in 5% BSA (PBS) and 0.1% Tween™ 20 at room temperature. Incubation with primary antibodies was done at 4° C. overnight. The names and dilutions of the primary antibodies used for IF are described in Table 3. Secondary antibodies were incubated for 1 hr at room temperature. Secondary antibodies used were Alexa Fluor® 647 (anti-chicken), Alexa Fluor® 555 (anti-mouse), Alexa Fluor® 488 (anti-rabbit) from Invitrogen™ at 1:1000 dilution. Coverslips were then mounted using DAPI (4′,6-diamidino-2-phenylindole)-supplemented mounting medium, ProLong™ Gold Antifade (Invitrogen™) and imaged with Leica DMI6000 epifluorescent microscope using oil immersion 63×/NA 1.4 objective. The quantification for total protein levels in neurons was done using ImageJ (version 1.53c), and imaging parameters were matched for exposure, gain, and offset.
The various compounds used for treatments and their stock concentrations in Table 4.

[2] = test system: eEF2; test: eEF2 phosphorylation (p-eEF2) Western blot in cortical neurons; settings: compound alone
Method: as §1, §2

[3] = test system: eIF2α; test: p-eIF2α Western blot in cortical neurons; settings: compound alone
Method: Primary cortical neurons were dissected from E18 Sprague Dawley rat pups in Hibernate E (BrainBits®) and dissociated using the Neural Tissue Dissociation kit (Miltenyi Biotec). […] After washing and centrifugation, neurons were seeded in 50 μg/ml poly-D-Lysine (Sigma-Aldrich) coated tissue culture plates. NBActive-1 medium (BrainBits®) supplemented with 100 U/ml of Penicillin-Streptomycin (Life TechnologiesTM), 2 mM L-Glutamine (Life TechnologiesTM), and 1×[…] supplement (R&D SystemsTM) was used as culture medium. For preparation of culture medium containing reduced tyrosine, the components of NBActive-1 medium were altered to combined with a reduced concentration of tyrosine, as mentioned in Table 1, and was supplemented with 100 U/ml of Penicillin-Streptomycin (Life TechnologiesTM), 2 mM L-Glutamine (Life TechnologiesTM), and 1×[…] supplement (R&D SystemsTM) to obtained culture medium with reduced tyrosine. […] For PARP1 siRNA, neurons at 7 DIV were transfected with 75 nM siRNA for both control and PARP1 siRNA. […] The lysates were centrifuged at 10,000 RPM for 15 mins at 4° C. to separate the chromatin-bound and soluble fractions. Lysates were quantified using Bio-RadTM Protein Assay and equal amounts of protein were loaded onto a 4 to 12% gradient gel (InvitrogenTM NuPAGETM). […] Quantification of western blots was done using ImageJ (Version 1.53c).

[4] = test system: γ-H2AX; test: γ-H2AX foci immunostaining in cortical neurons; settings: for γ-H2AX (DNA damage marker): compound alone
Method: as §3

[5] = test system: OGG1; test: OGG1 levels Western blot in cortical neurons
Method: FIG. 4C presents primary cortical neurons treated with Tyr ([…]) for 8 hr, and OGG1 was detected by Western Blot analysis using anti-OGG1 antibody.
as §2

Oc1ccc(/C=C\c2cc(O)cc(O)c2)cc1 [cis-RSV, cis-resveratrol]
TyrRS protein levels ([1]; cis-RSV 10-50 μM): increased TyrRS protein levels both in the nucleus and neurites | effect on trans-RSV- and tyrosine-mediated decrease in TyrRS levels ([1]; combination treatment): rescued the effects of trans-RSV and tyrosine-mediated decrease in TyrRS levels in a dose-dependent manner | effect on NMDA- and MPP+-mediated decrease of neuronal TyrRS [1]: suppressed this effect | effect on nelfinavir-mediated depletion of TyrRS ([1]; combination with nelfinavir): rescued | eEF2 phosphorylation (p-eEF2) [2]: activated the dephosphorylation of eEF2 | p-eIF2α levels [3]: triggered a transient increase in the levels of p-eIF2α | γ-H2AX levels ([4]; added after 12 hr of tyrosine pretreatment): reduced γ-H2AX levels | effect on tyrosine-induced accumulation of γ-H2AX ([4]; combination with tyrosine): rescued tyrosine-induced accumulation of γ-H2AX and 8-oxo-dG | γ-H2AX levels after ETO-mediated DNA damage ([4]; with etoposide (ETO)): decreased levels of γ-H2AX | effect on tyrosine-mediated decrease of OGG1 levels ([5]; combination with tyrosine): rescued

Oc1ccc(/C=C/c2cc(O)cc(O)c2)cc1 [trans-RSV, trans-resveratrol]
effect on NMDA- and MPP+-mediated decrease of neuronal TyrRS [1]: exacerbated it | TyrRS protein levels ([1]; high dose of trans-RSV (50 μM)): decreased it | TyrRS protein levels ([1]; low dose of trans-RSV (10 μm)): increased TyrRS | eEF2 phosphorylation (p-eEF2) [2]: increased p-eEF2 levels | p-eIF2α levels [3]: sustained the inhibition of eIF2α | γ-H2AX (DNA damage marker) [4]: caused the accumulation of γ-H2AX and 8-oxo-dG

N[C@@H](Cc1ccc(O)cc1)C(=O)O [tyrosine, L-tyrosine]
time until TyrRS levels were restored ([1]; after tyrosine treatment): 16 to 24 h | TyrRS protein levels ([1]; compound alone, rat cortical neurons): decreased TyrRS | eEF2 phosphorylation (p-eEF2) [2]: inhibited eEF2 | γ-H2AX (DNA damage marker) [4]: accumulation of γ-H2AX foci | OGG1 levels ([5]; compound alone): decreased 8-oxoguanine-DNA glycosylase (OGG1) levels
